Experimental data from ChEMBL document CHEMBL4393680, “Design, synthesis and biological evaluation of novel thioquinazolinone-based 2-aminobenzamide derivatives as potent histone deacetylase (HDAC) inhibitors” (Eur J Med Chem, 2019).

Legend:
[1] = test system: SMMC-7721; assay: Induction of apoptosis in human SMMC7721 cells assessed as early apoptotic cells at 4 uM incubated for 48 hrs by Annexin-V-FITC/propidium iodide staining based flow cytometry (Rvb=2.88%); assay type: functional
[2] = test system: SMMC-7721; assay: Induction of apoptosis in human SMMC7721 cells assessed as necrotic cells at 0.25 uM incubated for 48 hrs by Annexin-V-FITC/propidium iodide staining based flow cytometry (Rvb=1.88%); assay type: functional
[3] = test system: SMMC-7721; assay: Cell cycle arrest in human SMMC7721 cells assessed as accumulation at S phase at 0.25 uM incubated for 48 hrs by propidium iodide staining based flow cytometry (Rvb=6.83%); assay type: functional
[4] = test system: HCT-116; assay: Antiproliferative activity against human HCT116 cells assessed as reduction in cell growth at 8 uM incubated for 72 hrs by CCK-8 assay relative to control; assay type: functional; conditions: HCT-116, 72 h
[5] = test system: SMMC-7721; assay: Cell cycle arrest in human SMMC7721 cells assessed as accumulation at G0/G1 phase at 4 uM incubated for 48 hrs by propidium iodide staining based flow cytometry (Rvb=77%); assay type: functional
[6] = test system: SMMC-7721; assay: Induction of apoptosis in human SMMC7721 cells assessed as late apoptotic cells at 1 uM incubated for 48 hrs by Annexin-V-FITC/propidium iodide staining based flow cytometry (Rvb=1.73%); assay type: functional
[7] = test system: SMMC-7721; assay: Induction of apoptosis in human SMMC7721 cells assessed as necrotic cells at 4 uM incubated for 48 hrs by Annexin-V-FITC/propidium iodide staining based flow cytometry (Rvb=1.88%); assay type: functional
[8] = test system: SMMC-7721; assay: Cell cycle arrest in human SMMC7721 cells assessed as accumulation at S phase at 1 uM incubated for 48 hrs by propidium iodide staining based flow cytometry (Rvb=6.83%); assay type: functional
[9] = test system: HeLa; assay: Antiproliferative activity against human HeLa cells assessed as reduction in cell growth at 2 uM incubated for 72 hrs by CCK-8 assay relative to control; assay type: functional
[10] = test system: HeLa; assay: Antiproliferative activity against human HeLa cells assessed as reduction in cell growth incubated for 72 hrs by CCK-8 assay; assay type: functional, cell-based
[11] = test system: A-375; assay: Antiproliferative activity against human A375 cells assessed as reduction in cell growth at 2 uM incubated for 72 hrs by CCK-8 assay relative to control; assay type: functional; conditions: A-375, 72 h
[12] = test system: SMMC-7721; assay: Induction of apoptosis in human SMMC7721 cells assessed as viable cells at 1 uM incubated for 48 hrs by Annexin-V-FITC/propidium iodide staining based flow cytometry (Rvb=93.5%); assay type: functional; conditions: SMMC-7721, 48 h, read-out: Activity
[13] = test system: SMMC-7721; assay: Induction of apoptosis in human SMMC7721 cells assessed as late apoptotic cells at 4 uM incubated for 48 hrs by Annexin-V-FITC/propidium iodide staining based flow cytometry (Rvb=1.73%); assay type: functional
[14] = test system: A-375; assay: Antiproliferative activity against human A375 cells assessed as reduction in cell growth incubated for 72 hrs by CCK-8 assay; assay type: functional, cell-based; conditions: A-375, 72 h
[15] = test system: SMMC-7721; assay: Cell cycle arrest in human SMMC7721 cells assessed as accumulation at S phase at 4 uM incubated for 48 hrs by propidium iodide staining based flow cytometry (Rvb=6.83%); assay type: functional
[16] = test system: SMMC-7721; assay: Cell cycle arrest in human SMMC7721 cells assessed as accumulation at G0/G1 phase at 1 uM incubated for 48 hrs by propidium iodide staining based flow cytometry (Rvb=77%); assay type: functional
[17] = test system: SMMC-7721; assay: Cell cycle arrest in human SMMC7721 cells assessed as accumulation at G2/M phase at 4 uM incubated for 48 hrs by propidium iodide staining based flow cytometry (Rvb=16.17%); assay type: functional
[18] = test system: SMMC-7721; assay: Induction of apoptosis in human SMMC7721 cells assessed as viable cells at 4 uM incubated for 48 hrs by Annexin-V-FITC/propidium iodide staining based flow cytometry (Rvb=93.5%); assay type: functional; conditions: SMMC-7721, 48 h, read-out: Activity
[19] = test system: SMMC-7721; assay: Induction of apoptosis in human SMMC7721 cells assessed as necrotic cells at 1 uM incubated for 48 hrs by Annexin-V-FITC/propidium iodide staining based flow cytometry (Rvb=1.88%); assay type: functional
[20] = test system: SMMC-7721; assay: Antiproliferative activity against human SMMC7721 cells assessed as reduction in cell growth at 2 uM incubated for 72 hrs by CCK-8 assay relative to control; assay type: functional; conditions: SMMC-7721, 72 h
[21] = test system: A549; assay: Antiproliferative activity against human A549 cells assessed as reduction in cell growth at 2 uM incubated for 72 hrs by CCK-8 assay relative to control; assay type: functional; conditions: A549, 72 h
[22] = test system: SMMC-7721; assay: Induction of apoptosis in human SMMC7721 cells assessed as viable cells at 0.25 uM incubated for 48 hrs by Annexin-V-FITC/propidium iodide staining based flow cytometry (Rvb=93.5%); assay type: functional; conditions: SMMC-7721, 48 h, read-out: Activity
[23] = test system: SMMC-7721; assay: Induction of apoptosis in human SMMC7721 cells assessed as late apoptotic cells at 0.25 uM incubated for 48 hrs by Annexin-V-FITC/propidium iodide staining based flow cytometry (Rvb=1.73%); assay type: functional
[24] = target: Histone deacetylase 2 (Homo sapiens, UniProt Q92769); assay: Inhibition of human recombinant His-tagged HDAC2 ([…]) expressed in baculovirus infected insect cells using FLUOR DE LYS Green as substrate preincubated for 10 mins followed by substrate addition and measured after 30 mins by fluorescence method
[25] = test system: SMMC-7721; assay: Antiproliferative activity against human SMMC7721 cells assessed as reduction in cell growth at 8 uM incubated for 72 hrs by CCK-8 assay relative to control; assay type: functional; conditions: SMMC-7721, 72 h
[26] = test system: HeLa; assay: Antiproliferative activity against human HeLa cells assessed as reduction in cell growth at 8 uM incubated for 72 hrs by CCK-8 assay relative to control; assay type: functional
[27] = test system: A-375; assay: Antiproliferative activity against human A375 cells assessed as reduction in cell growth at 8 uM incubated for 72 hrs by CCK-8 assay relative to control; assay type: functional; conditions: A-375, 72 h
[28] = test system: SMMC-7721; assay: Induction of apoptosis in human SMMC7721 cells assessed as early apoptotic cells at 1 uM incubated for 48 hrs by Annexin-V-FITC/propidium iodide staining based flow cytometry (Rvb=2.88%); assay type: functional
[29] = test system: NIH3T3; assay: Cytotoxicity against mouse NIH/3T3 cells assessed as reduction in cell viability after 48 hrs by CCK8 assay; assay type: cell-based; conditions: NIH3T3, 48 h
[30] = test system: A549; assay: Antiproliferative activity against human A549 cells assessed as reduction in cell growth at 8 uM incubated for 72 hrs by CCK-8 assay relative to control; assay type: functional; conditions: A549, 72 h
[31] = test system: HCT-116; assay: Antiproliferative activity against human HCT116 cells assessed as reduction in cell growth at 2 uM incubated for 72 hrs by CCK-8 assay relative to control; assay type: functional; conditions: HCT-116, 72 h
[32] = test system: SMMC-7721; assay: Cell cycle arrest in human SMMC7721 cells assessed as accumulation at G0/G1 phase at 0.25 uM incubated for 48 hrs by propidium iodide staining based flow cytometry (Rvb=77%); assay type: functional
[33] = test system: SMMC-7721; assay: Cell cycle arrest in human SMMC7721 cells assessed as accumulation at G2/M phase at 0.25 uM incubated for 48 hrs by propidium iodide staining based flow cytometry (Rvb=16.17%); assay type: functional
[34] = test system: SMMC-7721; assay: Induction of apoptosis in human SMMC7721 cells assessed as early apoptotic cells at 0.25 uM incubated for 48 hrs by Annexin-V-FITC/propidium iodide staining based flow cytometry (Rvb=2.88%); assay type: functional
[35] = test system: SMMC-7721; assay: Cell cycle arrest in human SMMC7721 cells assessed as accumulation at G2/M phase at 1 uM incubated for 48 hrs by propidium iodide staining based flow cytometry (Rvb=16.17%); assay type: functional
[36] = test system: SMMC-7721; assay: Antiproliferative activity against human SMMC7721 cells assessed as reduction in cell growth incubated for 72 hrs by CCK-8 assay; assay type: functional, cell-based; conditions: SMMC-7721, 72 h
[37] = test system: A549; assay: Antitumor activity against human A549 cells xenografted in BALB/C mouse assessed as tumor growth inhibition at 25 mg/kg, ip bid for 21 days measured at 3 days interval during compound dosing relative to control; assay type: functional; conditions: read-out: TGI

Histone deacetylase 2, sequence (Q92769 whole entry): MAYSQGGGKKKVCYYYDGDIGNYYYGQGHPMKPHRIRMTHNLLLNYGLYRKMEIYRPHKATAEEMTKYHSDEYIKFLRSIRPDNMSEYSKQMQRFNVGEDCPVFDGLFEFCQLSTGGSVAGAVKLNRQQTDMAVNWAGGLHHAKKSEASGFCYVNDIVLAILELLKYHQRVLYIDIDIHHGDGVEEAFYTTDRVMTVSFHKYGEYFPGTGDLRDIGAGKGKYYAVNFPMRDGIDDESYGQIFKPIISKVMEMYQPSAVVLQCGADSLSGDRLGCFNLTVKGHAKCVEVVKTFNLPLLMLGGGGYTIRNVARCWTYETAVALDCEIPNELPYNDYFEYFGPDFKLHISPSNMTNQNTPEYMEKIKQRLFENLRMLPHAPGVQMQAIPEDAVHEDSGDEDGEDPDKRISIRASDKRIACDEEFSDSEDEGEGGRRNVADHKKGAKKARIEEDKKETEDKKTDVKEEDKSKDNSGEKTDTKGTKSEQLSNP

Row | Compound | Activity [1] | Activity [2] | Activity [3] | inhibition at 8 µM [4] | Activity [5] | Activity [6] | Activity [7] | Activity [8] | inhibition at 2 µM [9] | IC50 [10] | inhibition at 2 µM [11] | viability at 1 µM [12] | Activity [13] | Activity [15] | Activity [16] | Activity [17] | viability at 4 µM [18] | Activity [19] | inhibition at 2 µM [20] | inhibition at 2 µM [21] | further results
1 | Nc1ccc(F)cc1NC(=O)c1ccc(CNC(=O)/C=C/c2cccnc2)cc1 | 15.2% | 1.77% | 13.28% | 87.4% | 76.78% | 7.88% | 4.08% | 13.16% | 13.4% | 12.6 µM | 27.6% | 84.7% | 19.1% | 13.53% | 76.44% | 9.69% | 61.6% | 2.34% | 42.1% | 8% | IC50 [14]: 4.21 µM; viability at 0.25 µM [22]: 88.6%; Activity [23]: 3.88%; IC50 [24]: 0.31 µM; inhibition at 8 µM [25]: 58.9%; inhibition at 8 µM [26]: 52%; inhibition at 8 µM [27]: 63.6%; Activity [28]: 5.09%; IC50 [29]: 2.37 µM; inhibition at 8 µM [30]: 25.5%; inhibition at 2 µM [31]: 61.1%; Activity [32]: 77.96%; Activity [33]: 8.76%; Activity [34]: 5.74%; Activity [35]: 10.4%; IC50 [36]: > 26 µM
2 | CC(=O)Nc1ccc(C(=O)Nc2ccccc2N)cc1 [TACEDINALINE] | 10.2% | 1.55% | 15.37% | 44% | 70.12% | 6.72% | 4.85% | 17.41% | 13.4% | 18.8 µM | 13.4% | 86.5% | 19.3% | 11.67% | 75.86% | 18.21% | 65.7% | 1.74% | 23.5% | 23.5% | viability at 0.25 µM [22]: 88.4%; inhibition in vivo at 25 mg/kg [37]: 46.8%; Activity [23]: 5.37%; inhibition at 8 µM [25]: 29.1%; inhibition at 8 µM [26]: 32.4%; inhibition at 8 µM [27]: 33.5%; Activity [28]: 4.99%; IC50 [29]: 9.05 µM; inhibition at 8 µM [30]: 29.1%; inhibition at 2 µM [31]: 13%; Activity [32]: 76.9%; Activity [33]: 7.73%; Activity [34]: 4.7%; Activity [35]: 6.73%; IC50 [36]: > 32 µM
